target: 15-PGDH (Homo sapiens (Human), UniProt P15428); assay: Assay for the activities of 15-PGDH inhibitors (formation of NADH at 340 nm); format: biochemical; details: purified 15-PGDH enzyme, 21 μM PGE2, 0.25 mM NAD+, pH 7.5; concentration inhibiting 50% of 15-PGDH activity
Description: <1-1> Expression and Purification of 15-PGDH
A 15-PGDH cDNA plasmid containing BamHI and EcoRI sites of the pGES-2T expression vector was used to transform Escherichia coli BL-21 lysS in accordance with the ordinarily used in the art. The transformed cells were grown in 500 mL LB medium containing 50 μg/mL ampicillin at 37° C. while being stirred at 220 rpm until the OD600 reached 0.6. Isopropyl β-D-thiogalactoside (1 mM) was added and the cells were allowed to grow for 12 hours at 25° C. Then, the pellets were harvested by centrifugation at 4000×g for 30 minutes at 4° C. The cell pallets were resuspended in 20 mL cell lysis buffer (1×PBS buffer (pH 7.4) containing 1 mM EDTA and 0.1 mM DTT) and sonicated (14×10 s at 4° C.). The disrupted cells were centrifuged at 4000×g for 20 minutes at 4° C. The supernatant was loaded slowly on a glutathione-sepharose 4B column, which was equilibrated at 4° C. with a cell lysis buffer (1×PBS buffer (pH 7.4) containing 1 mM EDTA and 0.1 mM DTT). The column was washed with the lysis buffer until OD280 reached below 0.005. Then, 15-PGDH was eluted from the glutathione-sepharose 4B column at room temperature for 5 minutes by using the elution buffer (50 mM Tris-HCl (pH 8.0) containing 10 mM reduced glutathione, 1 mM EDTA and 0.1 mM DTT). The concentration and the purity of the purified enzyme were determined by SDS-PAGE.
<1-2> Assay for the Activities of 15-PGDH Inhibitors
The absorbance of the reaction mixture was recorded at 340 nm so that the activities of the derivatives according to the present invention as 15-PGDH inhibitors were determined from a standard curve prepared from the absorbance of various concentrations of NADH at 340 nm.

15-PGDH, sequence (P15428 whole entry): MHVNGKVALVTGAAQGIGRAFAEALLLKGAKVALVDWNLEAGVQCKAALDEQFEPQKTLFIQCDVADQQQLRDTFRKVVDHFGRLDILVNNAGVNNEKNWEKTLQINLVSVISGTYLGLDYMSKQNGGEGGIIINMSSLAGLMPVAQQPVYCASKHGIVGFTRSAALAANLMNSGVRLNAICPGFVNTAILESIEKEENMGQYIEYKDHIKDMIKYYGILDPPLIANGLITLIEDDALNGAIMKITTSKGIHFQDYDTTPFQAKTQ

Q: How did the IC50 turn out when `O=C1NC(=O)/C(=C/c2ccc(OCCC3CCCCC3)c(F)c2)S1` [Derivative 20, 5-(4-(2-cyclohexylethoxy)-3-fluorobenzylidene)thiazolidine-2,4-dione] was run?
A: The IC50 was 50.8 nM.

Q: `O=C1NC(=O)/C(=C/c2ccc(OCCCN3CCS(=O)(=O)CC3)cc2)S1` [Derivative 21, 5-[4-(3-thiomorpholine-1,1-dioxidepropoxy)benzylidene]-thiazolidine-2,4-dione] was tested. Which IC50 did it give?
A: Its IC50 is 3040 nM.

Q: Which IC50 does the source give for `O=C1NC(=O)/C(=C/c2ccc(OCc3cccs3)cc2)S1` [Derivative 22, 5-(4-(thiophen-2-ylmethoxy)benzylidene)thiazolidine-2,4-dione] here?
A: The IC50 was 251 nM.

Q: With `O=C1NC(=O)/C(=C/c2ccc(OCc3ccsc3)cc2)S1` [Derivative 23, 5-(4-(thiophen-3-ylmethoxy)benzylidene)thiazolidine-2,4-dione] as the molecule, how does the IC50 read?
A: Its IC50 is 392 nM.

Q: For `O=C1NC(=O)/C(=C/c2ccc(OCCC3CCCC3)cc2)S1` [Derivative 24, 5-(4-(2-cyclopentylethoxy)benzylidene)thiazolidine-2,4-dione], which IC50 is on record?
A: Its IC50 is 115 nM.

Q: `O=C1NC(=O)/C(=C/c2ccc(OCc3ccco3)cc2)S1` [Derivative 25, 5-(4-(furan-2-ylmethoxy)benzylidene)thiazolidine-2,4-dione] was tested. Which IC50 did it give?
A: Its IC50 is 1880 nM.

Q: With `Cc1ccc(COc2ccc(/C=C3\SC(=O)NC3=O)cc2)cc1` [Derivative 27, 5-(4-(4-methylbenzyloxy)benzylidene)thiazolidine-2,4-dione] as the molecule, how does the IC50 read?
A: The IC50 was 255 nM.

Q: Which IC50 does the source give for `COc1ccc(COc2ccc(/C=C3\SC(=O)NC3=O)cc2)cc1` [Derivative 28, 5-(4-(4-methoxybenzyloxy)benzylidene)thiazolidine-2,4-dione] here?
A: The IC50 was 728 nM.

Q: `O=C1NC(=O)/C(=C/c2ccc(OCc3ccc4c(c3)OCO4)cc2)S1` [Derivative 29, 5-(4-(benzo[d][1,3]dioxol-5-ylmethoxy)benzylidene)thiazolidine-2,4-dione] was tested. Which IC50 did it give?
A: The IC50 was 310 nM.

Q: With `O=C1NC(=O)/C(=C/c2ccc(OC3CCCCC3)c(Cl)c2)S1` [Derivative 30, 5-(3-chloro-4-(cyclohexyloxy)benzylidene)thiazolidine-2,4-dione] as the molecule, how does the IC50 read?
A: Its IC50 is 48.9 nM.

Q: How did the IC50 turn out when `O=C1NC(=O)/C(=C/c2ccc(OCC3CCCCC3)c(Cl)c2)S1` [Derivative 31, 5-(3-chloro-4-(cyclohexylmethoxy)benzylidene)thiazolidine-2,4-dione] was run?
A: Its IC50 is 26.9 nM.

Q: How did the IC50 turn out when `O=C1NC(=O)/C(=C/c2ccc(OCCCC3CCCCC3)c(Cl)c2)S1` [Derivative 32, 5-(3-chloro-4-(3-cyclohexylpropoxy)benzylidene)thiazolidine-2,4-dione] was run?
A: Its IC50 is 10.3 nM.

Q: For `O=C1NC(=O)/C(=C/c2ccc(OCCCCC3CCCCC3)c(Cl)c2)S1` [Derivative 33, 5-(3-chloro-4-(4-cyclohexylbutoxy)benzylidene)thiazolidine-2,4-dione], which IC50 is on record?
A: The IC50 was 26.3 nM.

Q: `O=C1NC(=O)/C(=C/c2cccc(OCCC3CCCCC3)c2Cl)S1` [Derivative 34, 5-(2-chloro-3-(2-cyclohexylethoxy)benzylidene)thiazolidine-2,4-dione] was tested. Which IC50 did it give?
A: Its IC50 is 17.9 nM.

Q: With `O=C1NC(=O)/C(=C/c2ccc(OCC3CCCC3)cc2)S1` [Derivative 35, 5-(4-(cyclopentylmethoxy)benzylidene)thiazolidine-2,4-dione] as the molecule, how does the IC50 read?
A: Its IC50 is 42.5 nM.

Q: With `O=C1NC(=O)/C(=C/c2ccc(OCc3ccc(CCl)cc3)cc2)S1` [Derivative 36, 5-(4-(4-(chloromethyl)benzyloxy)benzylidene)thiazolidine-2,4-dione] as the molecule, how does the IC50 read?
A: The IC50 was 124 nM.

Q: For `CC1CCC(COc2ccc(/C=C3\SC(=O)NC3=O)cc2)CC1` (stereo not drawn) [Derivative 37, 5-(4-((4-methylcyclohexyl)methoxy)benzylidene)thiazolidine-2,4-dione], which IC50 is on record?
A: Its IC50 is 66.4 nM.

Q: How did the IC50 turn out when `O=C1NC(=O)/C(=C/c2ccc(O)cc2)S1` [Derivative 39, 5-(4-hydroxybenzylidene)thiazolidine-2,4-dione] was run?
A: Its IC50 is 10100 nM.

Q: `COc1ccc(/C=C2\SC(=O)NC2=O)cc1` [Derivative 40, 5-(4-methoxybenzylidene)thiazolidine-2,4-dione] was tested. Which IC50 did it give?
A: Its IC50 is 5670 nM.

Q: For `CCOc1ccc(/C=C2\SC(=O)NC2=O)cc1` [Derivative 41, 5-(4-ethoxybenzylidene)thiazolidine-2,4-dione], which IC50 is on record?
A: The IC50 was 5820 nM.

Q: How did the IC50 turn out when `O=C1NC(=O)/C(=C/c2ccc(OCC3CCCCC3)cc2)S1` [Derivative 42, 5-(4-(cyclohexylmethoxy)benzylidene)thiazolidine-2,4-dione] was run?
A: The IC50 was 217 nM.

Q: With `CC1(COc2ccc(/C=C3\SC(=O)NC3=O)cc2)CCCCC1` [Derivative 43, 5-(4-((1-methylcyclohexyl)methoxy)benzylidene)thiazolidine-2,4-dione] as the molecule, how does the IC50 read?
A: Its IC50 is 547 nM.

Q: Which IC50 does the source give for `O=C1NC(=O)/C(=C/c2ccc(OCc3ccccc3)cc2)S1` [Derivative 44, 5-(4-(benzyloxy)benzylidene)thiazolidine-2,4-dione] here?
A: The IC50 was 1040 nM.

Q: `O=C1NC(=O)/C(=C/c2ccc(OC3CCCCC3)cc2)S1` [Derivative 45, 5-(4-(cyclohexyloxy)benzylidene)thiazolidine-2,4-dione] was tested. Which IC50 did it give?
A: Its IC50 is 822 nM.

Q: For `O=C1NC(=O)/C(=C/c2ccc(OCCC3CCCCC3)cc2)S1` [Derivative 46, 5-(4-(2-cyclohexylethoxy)benzylidene)thiazolidine-2,4-dione], which IC50 is on record?
A: Its IC50 is 50.9 nM.

Q: With `O=C1NC(=O)/C(=C/c2ccc(OCCC3CCCCC3)c([N+](=O)[O-])c2)S1` [Derivative 49, 5-(4-(2-cyclohexylethoxy)-3-nitrobenzylidene)thiazolidine-2,4-dione] as the molecule, how does the IC50 read?
A: The IC50 was 59.5 nM.

Q: `Nc1cc(/C=C2\SC(=O)NC2=O)ccc1OCCC1CCCCC1` [Derivative 50, 5-(3-amino-4-(2-cyclohexylethoxy)benzylidene)thiazolidine-2,4-dione] was tested. Which IC50 did it give?
A: The IC50 was 286 nM.

Q: With `Cc1cc(/C=C2\SC(=O)NC2=O)ccc1OCC1CCCCC1` [Derivative 51, 5-(4-(2-cyclohexylmethoxy)-3-methylbenzylidene)thiazolidine-2,4-dione] as the molecule, how does the IC50 read?
A: Its IC50 is 49.8 nM.

Q: Which IC50 does the source give for `O=C1NC(=O)/C(=C/c2ccc(Oc3ccccc3)cc2)S1` [Derivative 54, 5-(4-phenoxybenzylidene)-1,3-thiazolidine-2,4-dione] here?
A: Its IC50 is greater than 20000 nM.

Q: With `O=C1NC(=O)/C(=C/c2ccc(OCCc3ccccc3)cc2)S1` [Derivative 55, 5-[4-(2-phenylethoxy)benzylidene]-1,3-thiazolidine-2,4-dione] as the molecule, how does the IC50 read?
A: Its IC50 is 117 nM.

Q: For `CCOc1cc(/C=C2\SC(=O)NC2=O)ccc1OCCC1CCCCC1` [Derivative 59, 5-(4-(2-cyclohexylethoxy)-3-ethoxybenzylidene)thiazolidine-2,4-dione], which IC50 is on record?
A: Its IC50 is 259 nM.

Q: Which IC50 does the source give for `COc1cc(OCCC2CCCCC2)ccc1/C=C1\SC(=O)NC1=O` [Derivative 60, 5-(4-(2-cyclohexylethoxy)-2-methoxybenzylidene)thiazolidine-2,4-dione] here?
A: Its IC50 is 3560 nM.

Q: `O=C1NC(=O)/C(=C/c2ccc(OCC3COc4ccccc4O3)cc2)S1` (stereo not drawn) [Derivative 62, 5-(4-((2,3-Dihydrobenzo[b][1,4]dioxin-2-yl)methoxy)benzylidene) thiazolidine-2,4-dione] was tested. Which IC50 did it give?
A: The IC50 was 172 nM.

Q: For `O=C1NC(=O)/C(=C/c2cccc(OCC3CCCCC3)c2Cl)S1` [Derivative 63, 5-(2-chloro-3-(cyclohexylmethoxy)benzylidene)thiazolidine-2,4-dione], which IC50 is on record?
A: Its IC50 is 57.6 nM.

Q: Which IC50 does the source give for `O=C1NC(=O)/C(=C/c2cccc(OCCCC3CCCCC3)c2Cl)S1` [Derivative 64, 5-(2-chloro-3-(cyclohexylpropoxy)benzylidene)thiazolidine-2,4-dione] here?
A: The IC50 was 59 nM.

Q: Which IC50 does the source give for `CC1CCC(COc2ccc(/C=C3\SC(=O)NC3=O)cc2C(F)(F)F)CC1` (stereo not drawn) [Derivative 65, 5-[4-((4-methylcyclohexyl)methoxy)-3-(trifluoromethyl)benzylidene]thiazolidine-2,4-dione] here?
A: Its IC50 is 31.4 nM.

Q: Which IC50 does the source give for `COC(=O)C1CCC(COc2ccc(/C=C3\SC(=O)NC3=O)cc2)CC1` (stereo not drawn) [Derivative 66, methyl-4-((4-((2,4-dioxothiazolidine-5-ylidene)methyl)phenoxy)methyl)cyclohexane carboxylate] here?
A: The IC50 was 20.4 nM.

Q: Which IC50 does the source give for `COc1ccc(/C=C2\SC(=O)NC2=O)cc1OCCC1CCCCC1` [Derivative 67, 5-(3-(2-cyclohexylethoxy)-4-methoxybenzylidene)thiazolidine-2,4-dione] here?
A: Its IC50 is 1160 nM.

Q: Which IC50 does the source give for `O=C1NC(=O)/C(=C/c2ccc(OCCc3ccccc3)c(Cl)c2)S1` [Derivative 69, 5-(3-chloro-4-phenylethoxybenzylidene)thiazolidine-2,4-dione] here?
A: The IC50 was 19.8 nM.

Q: How did the IC50 turn out when `O=C1NC(=O)/C(=C/c2ccc(OCCCc3ccccc3)c(Cl)c2)S1` [Derivative 70, 5-(3-chloro-4-(3-phenylpropoxy)benzylidene)thiazolidine-2,4-dione] was run?
A: Its IC50 is 38.1 nM.

Q: Which IC50 does the source give for `O=C1NC(=O)/C(=C/c2cccc(OCCc3ccccc3)c2Cl)S1` [Derivative 73, 5-(2-chloro-3-phenylethoxybenzylidene)thiazolidine-2,4-dione] here?
A: Its IC50 is 122 nM.

Q: For `O=C1NC(=O)/C(=C/c2cccc(OCCCc3ccccc3)c2Cl)S1` [Derivative 75, 5-(2-chloro-3-(3-phenylpropoxy)benzylidene)thiazolidine-2,4-dione], which IC50 is on record?
A: Its IC50 is 44.9 nM.

Source: patent publication US8637558B2 (Industry-Academic Cooperation Foundation, Chosun University, priority 2008, dated 2014)
